For the test, the target named is T1, human orexin-2 (hOX2) receptor (Homo sapiens, UniProt O43614).
T1 construct: expressed in transfected cells
T1 sequence (O43614 1-444): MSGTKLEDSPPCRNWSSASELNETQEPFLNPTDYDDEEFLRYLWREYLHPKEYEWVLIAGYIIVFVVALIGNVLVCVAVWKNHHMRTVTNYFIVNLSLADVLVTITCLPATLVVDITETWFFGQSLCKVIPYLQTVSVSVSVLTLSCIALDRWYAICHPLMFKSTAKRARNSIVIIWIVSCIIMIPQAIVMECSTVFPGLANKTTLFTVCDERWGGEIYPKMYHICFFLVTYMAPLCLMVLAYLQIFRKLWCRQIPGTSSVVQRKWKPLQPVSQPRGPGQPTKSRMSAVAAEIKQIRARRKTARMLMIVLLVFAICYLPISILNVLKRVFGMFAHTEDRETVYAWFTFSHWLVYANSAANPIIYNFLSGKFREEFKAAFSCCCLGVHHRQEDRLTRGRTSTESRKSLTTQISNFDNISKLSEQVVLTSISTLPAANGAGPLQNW
Description: Intracellular Ca2+ mobilization assay (FLIPR), CHO(dHFr-) cells expressing hOX2, orexin-A as agonist. In kind it is cell-based. The settings on record: antagonist Kb=IC50/(1+[A]/EC50); orexin-A at EC80; CHO(dHFr-)-OX2R cells; antagonist applied 25 min before agonist. The procedure: Intracellular Ca^2+ Mobilization Assay
The Chinese Hamster Ovary (dHFr-) mutant cell line stably expressing human orexin-1 (hOX1) or human orexin-2 (hOX2) receptors were maintained in Dulbecco's Modified Eagle Medium (1×) with GlutaMax™1, 4500 mg/L D-Glucose and Sodium Pyruvate (Catalog No. 31966-021, Invitrogen, Carlsbad, Calif.), 5% dialyzed fetal calf serum (Catalog No. 26400-044), 100 μg/ml penicillin and 100 μg/ml streptomycin. The cells were seeded at 5×10^4 cells/well in the poly-D-lysine treated, 96-well, black/clear-bottomed plates (Catalog No. BD356640, BD Biosciences, Palo Alto, Calif.). 24 h later, the cells were loaded for 1 h at 37° C. with 4 μM Flou-4 acetoxymethyl ester (Catalog No. F-14202, Molecular Probes, Eugene, Oreg.) in FLIPR buffer (1×HBSS, 20 mM HEPES, 2.5 mM Probenecid). Hanks' Balanced Salt Solution (HBSS) (10×) (catalog No. 14065-049) and HEPES (1M) (catalog No. 15630-056) were purchased from Invitrogen, Carlsbad, Calif. Probenecid (250 mM) (catalog No. P8761) was from Sigma, Buchs, Switzerland. The cells were washed five times with FLIPR buffer to remove excess dye and intracellular calcium mobilization, [Ca^2−]i were measured using a Fluorometric Imaging Plate Reader (FLIPR-96, Molecular Devices, Menlo Park, Calif.) as described previously (Malherbe et al., Mol. Pharmacol., 64, 823-832, 2003). Orexin A (catalog No. 1455, Toris Cookson Ltd, Bristol, UK) was used as agonist. Orexin A ([…] stock solution in DMSO) was diluted in FLIPR buffer+0.1% BSA. The EC50 and EC80 values of orexin-A were measured daily from standard agonist concentration-response curves in CHO(dHFr-)-OX1R and -OX2R cell lines. All compounds were dissolved in 100% DMSO. Inhibition curves were determined by addition of 11 concentrations (0.0001-10 μM) of inhibitory compounds and using EC80 value of orexin-A as agonist (a concentration which gave 80% of max agonist response, determined daily). The antagonists were applied 25 min (incubation at 37° C.) before the application of the agonist. Responses were measured as peak increase in fluorescence minus basal, normalized to the maximal stimulatory effect induced by EC80 value of orexin-A or orexin-B. Inhibition curves were fitted according to the Hill equation: y=100/(1+(x/IC50)^nH), where nH=slope factor using Excel-fit 4 software (Microsoft).
Kb values were calculated according to the following equation Kb=IC50/(1+[A]/EC50) where A is the concentration of agonist added which is very close to agonist EC80 value, and IC50 and EC50 values were derived from the antagonist inhibition and orexin-A or B agonist curves, respectively.
With `O=C(c1ccccc1C(F)(F)F)N1CC[C@@H](Nc2cnc3cc(F)c(F)cc3n2)C1` [Example 165, [(R)-3-(6,7-Difluoro-quinoxalin-2-ylamino)-pyrrolidin-1-yl]-(2-trifluoromethyl-phenyl)-methanone], the Kb was found to be 0.0185 µM.
In the case of `O=C(c1c(Cl)cccc1C(F)(F)F)N1CC[C@@H](Nc2nc3ccc(Cl)cc3o2)C1` [Example 79, [(R)-3-(6-Chloro-benzooxazol-2-ylamino)-pyrrolidin-1-yl]-(2-chloro-6-trifluoromethyl-phenyl)-methanone] it was 0.0173 µM.
Under `CCc1ccccc1C(=O)N1CC[C@@H](Nc2nc3ccc(Cl)cc3o2)C1` [Example 47, [(R)-3-(6-Chloro-benzooxazol-2-ylamino)-pyrrolidin-1-yl]-(2-ethyl-phenyl)-methanone] stands 0.0377 µM; under `O=C(c1c(Cl)cccc1Cl)N1CC[C@@H](Nc2nc3ccc(Cl)cc3o2)C1` [Example 33, [(R)-3-(6-Chloro-benzooxazol-2-ylamino)-pyrrolidin-1-yl]-(2,6-dichloro-phenyl)-methanone], 0.0354 µM; under `COc1cccc(OC)c1C(=O)N1CC[C@@H](Nc2cnc3ccccc3n2)C1` [Example 24, (2,6-Dimethoxy-phenyl)-[(R)-3-(quinoxalin-2-ylamino)-pyrrolidin-1-yl]-methanone], 0.0415 µM.
In the case of `O=C(c1ccccc1OC(F)(F)C(F)F)N1CC[C@@H](Nc2cnc3ccccc3n2)C1` [Example 184, [(R)-3-(Quinoxalin-2-ylamino)-pyrrolidin-1-yl]-[2-(1,1,2,2-tetrafluoro-ethoxy)-phenyl]-methanone] it was 0.0021 µM; in that of `O=C(c1ccccc1OC(F)(F)C(F)F)N1CC[C@@H](Nc2nc3ccc(F)cc3o2)C1` [Example 158, [(R)-3-(6-Fluoro-benzooxazol-2-ylamino)-pyrrolidin-1-yl]-[2-(1,1,2,2-tetrafluoro-ethoxy)-phenyl]-methanone], 0.0039 µM.
`O=C(c1c(F)cccc1C(F)(F)F)N1CC[C@@H](Nc2nc3ccc(Cl)cc3o2)C1` [Example 72, [(R)-3-(6-Chloro-benzooxazol-2-ylamino)-pyrrolidin-1-yl]-(2-fluoro-6-trifluoromethyl-phenyl)-methanone] showed an antagonist dissociation constant (Kb) of 0.0298 µM.
In the case of `Cc1ccc(C(F)(F)F)c(C(=O)N2CC[C@@H](Nc3nc4c(F)cccc4s3)C2)c1` [Example 124, [(R)-3-(4-Fluoro-benzothiazol-2-ylamino)-pyrrolidin-1-yl]-(5-methyl-2-trifluoromethyl-phenyl)-methanone] it was 0.0363 µM; in that of `Cc1nc(C(=O)N2CC[C@@H](Nc3nc4ccc(F)cc4o3)C2)c(-c2ccccc2)s1` [Example 164, [(R)-3-(6-Fluoro-benzooxazol-2-ylamino)-pyrrolidin-1-yl]-(2-methyl-5-phenyl-thiazol-4-yl)-methanone], 0.047 µM; in that of `Cc1ccc(C(F)(F)F)c(C(=O)N2CC[C@@H](Nc3nc4ccc(F)cc4o3)C2)c1` [Example 159, [(R)-3-(6-Fluoro-benzooxazol-2-ylamino)-pyrrolidin-1-yl]-(5-methyl-2-trifluoromethyl-phenyl)-methanone], 0.0205 µM.
In the case of `O=C(c1ccccc1-c1ncn[nH]1)N1CC[C@@H](Nc2nc3ccc(Cl)cc3o2)C1` [Example 62, [(R)-3-(6-Chloro-benzooxazol-2-ylamino)-pyrrolidin-1-yl]-[2-(2H-[1,2,4]triazol-3-yl)-phenyl]-methanone] it was 0.014 µM; in that of `COc1cccc(OC)c1C(=O)N1CCC(Nc2cnc3ccccc3n2)C1` (centres unmarked) [Example 6, (2,6-Dimethoxy-phenyl)-[3-(quinoxalin-2-ylamino)-pyrrolidin-1-yl]-methanone], 0.0104 µM.
Under `Cc1ccc(Cl)c(C(=O)N2CC[C@@H](Nc3cnc4cc(F)c(F)cc4n3)C2)c1` [Example 170, (2-Chloro-5-methyl-phenyl)-[(R)-3-(6,7-difluoro-quinoxalin-2-ylamino)-pyrrolidin-1-yl]-methanone] stands 0.0129 µM.

Source of the values: patent US7897627B2, “Heteroaryl derivatives as orexin receptor antagonists” (Hoffmann-La Roche Inc., priority 2007, dated 2011).
